How the values were obtained:
KCNMA1/KCNMB4 = KCNMA1/KCNMB4 (Homo sapiens, UniProt Q12791+Q86W47); assay: Inhibition of human BK alpha/beta4 channel expressed in HEK293T cells assessed as K+ outward current fraction at 10 uM at -80 mV holding potential by whole cell patch clamp method relative to control; assay type: cell-based
[1] = biological target: T1, Calcium-activated potassium channel subunit beta-4 (Homo sapiens, UniProt Q86W47); assay: Binding affinity to NT-495 fluorophore reagent labelled human BK beta4 (45 to 166 residues) incubated for 30 mins by microscale thermophoresis assay
T1 sequence (Q86W47 whole entry): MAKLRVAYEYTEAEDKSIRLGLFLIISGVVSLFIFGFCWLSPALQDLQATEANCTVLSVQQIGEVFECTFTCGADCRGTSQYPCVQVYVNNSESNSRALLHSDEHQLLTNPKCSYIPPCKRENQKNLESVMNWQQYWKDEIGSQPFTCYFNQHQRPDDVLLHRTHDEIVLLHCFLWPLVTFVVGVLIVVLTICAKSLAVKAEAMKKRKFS

Row | Ratio (KCNMA1/KCNMB4) | Kd [1] | Kd ([1]; read-out: Kd) | SMILES
1 | 0.8 | Not Active | – | CC[C@H](C)[C@H](NC(=O)[C@H](CC(C)C)NC(=O)CNC(=O)[C@H](Cc1ccccc1)NC(=O)[C@H](CO)NC(=O)CN)C(=O)N[C@@H](CC(=O)O)C(=O)N[C@H](C(=O)N[C@@H](CCCCN)C(=O)N[C@H]1CSSC[C@@H]2NC(=O)[C@H](CCC(=O)O)NC(=O)CNC(=O)[C@H](CCC(N)=O)NC(=O)CNC(=O)[C@H](CO)NC(=O)CNC(=O)[C@H]([C@@H](C)O)NC(=O)[C@H](C(C)C)NC(=O)[C@H](CCCCN)NC(=O)[C@H](CCCCN)NC(=O)[C@@H]3CSSC[C@@H](C(=O)N[C@@H](Cc4ccc(O)cc4)C(=O)O)N[C@@H](CC(=O)O)C(=O)[C@H](CSSC[C@H](NC(=O)[C@H](CCC(=O)O)NC(=O)[C@H](CO)NC(=O)[C@H](CO)NC(=O)[C@H](C)NC(=O)[C@H](Cc4ccccc4)NC1=O)C(=O)N[C@@H](Cc1c[nH]c4ccccc14)C(=O)N[C@@H]([C@@H](C)O)C(=O)N[C@@H](C)C(=O)N3)N[C@@H](CCC(N)=O)C(=O)NC(=O)[C@H](CC(N)=O)NC(=O)[C@H](CC(N)=O)NC(=O)[C@H](CCC(N)=O)NC2=O)C(C)C
2 | 0.36 | – | 550 µM | CC[C@H](C)[C@H](NC(=O)[C@H](CC(C)C)NC(=O)CNC(=O)[C@H](Cc1ccccc1)NC(=O)[C@H](CO)NC(=O)CN)C(=O)N[C@@H](CC(=O)O)C(=O)N[C@H](C(=O)N[C@@H](CCCCN)C(=O)N[C@H]1CSSC[C@@H]2NC(=O)[C@H](CCCCN)NC(=O)CNC(=O)[C@H](CCC(N)=O)NC(=O)CNC(=O)[C@H](CO)NC(=O)CNC(=O)[C@H]([C@@H](C)O)NC(=O)[C@H](C(C)C)NC(=O)[C@H](CCCCN)NC(=O)[C@H](CCCCN)NC(=O)[C@@H]3CSSC[C@@H](C(=O)N[C@@H](Cc4ccc(O)cc4)C(=O)O)N[C@@H](CCCNC(=N)N)C(=O)[C@H](CSSC[C@H](NC(=O)[C@H](CCC(=O)O)NC(=O)[C@H](CO)NC(=O)[C@H](CO)NC(=O)[C@H](C)NC(=O)[C@H](Cc4ccccc4)NC1=O)C(=O)N[C@@H](Cc1c[nH]c4ccccc14)C(=O)N[C@@H](C(C)C)C(=O)N[C@@H](C)C(=O)N3)N[C@@H](CCC(N)=O)C(=O)NC(=O)[C@H](CC(N)=O)NC(=O)[C@H](CC(N)=O)NC(=O)[C@H](CCC(N)=O)NC2=O)C(C)C
3 | 0.75 | – | 109000 µM | CC[C@H](C)[C@H](NC(=O)[C@H](CC(C)C)NC(=O)CNC(=O)[C@H](Cc1ccccc1)NC(=O)[C@H](CO)NC(=O)CN)C(=O)N[C@@H](CC(=O)O)C(=O)N[C@H](C(=O)N[C@@H](CCCCN)C(=O)N[C@H]1CSSC[C@@H]2NC(=O)[C@H](CCCCN)NC(=O)CNC(=O)[C@H](CCC(N)=O)NC(=O)CNC(=O)[C@H](C)NC(=O)CNC(=O)[C@H]([C@@H](C)O)NC(=O)[C@H](C(C)C)NC(=O)[C@H](CCCCN)NC(=O)[C@H](CCCCN)NC(=O)[C@@H]3CSSC[C@@H](C(=O)N[C@@H](Cc4ccc(O)cc4)C(=O)O)N[C@@H](CCCNC(=N)N)C(=O)[C@H](CSSC[C@H](NC(=O)[C@H](CCC(=O)O)NC(=O)[C@H](CO)NC(=O)[C@H](CO)NC(=O)[C@H](C)NC(=O)[C@H](Cc4ccccc4)NC1=O)C(=O)N[C@@H](Cc1c[nH]c4ccccc14)C(=O)N[C@@H]([C@@H](C)O)C(=O)N[C@@H](C)C(=O)N3)N[C@@H](CCC(N)=O)C(=O)NC(=O)[C@H](CC(N)=O)NC(=O)[C@H](CC(N)=O)NC(=O)[C@H](CCC(N)=O)NC2=O)C(C)C
4 | 0.56 | – | 1100 µM | CC[C@H](C)[C@H](NC(=O)[C@H](CC(C)C)NC(=O)CNC(=O)[C@H](Cc1ccccc1)NC(=O)[C@H](CO)NC(=O)CN)C(=O)N[C@@H](CCCCN)C(=O)N[C@H](C(=O)N[C@@H](CCCCN)C(=O)N[C@H]1CSSC[C@@H]2NC(=O)[C@H](CCCCN)NC(=O)CNC(=O)[C@H](CCC(N)=O)NC(=O)CNC(=O)[C@H](CO)NC(=O)CNC(=O)[C@H]([C@@H](C)O)NC(=O)[C@H](C(C)C)NC(=O)[C@H](CCCCN)NC(=O)[C@H](CCCCN)NC(=O)[C@@H]3CSSC[C@@H](C(=O)N[C@@H](Cc4ccc(O)cc4)C(=O)O)N[C@@H](CCCNC(=N)N)C(=O)[C@H](CSSC[C@H](NC(=O)[C@H](CCCCN)NC(=O)[C@H](CO)NC(=O)[C@H](CO)NC(=O)[C@H](C)NC(=O)[C@H](Cc4ccccc4)NC1=O)C(=O)N[C@@H](Cc1c[nH]c4ccccc14)C(=O)N[C@@H]([C@@H](C)O)C(=O)N[C@@H](C)C(=O)N3)N[C@@H](CCC(N)=O)C(=O)NC(=O)[C@H](CC(N)=O)NC(=O)[C@H](CC(N)=O)NC(=O)[C@H](CCC(N)=O)NC2=O)C(C)C

— ChEMBL document CHEMBL4354835, “Selective Blockade of Neuronal BK (α + β4) Channels Preventing Epileptic Seizure” (J Med Chem, 2020)
